In patent publication US8415312B2, “Compound which is a nystatin derivative” (Biosergen AS, priority 2007, dated 2013):
Converted amounts (≈) assume the structure as drawn. “And” between values parts separate entries of the source, which are not always exact repeats. Identical values can stand only once.

Columns and labels:
[1] = tested on: Cryptococcus humicolus ATCC 9949; experiment: Antifungal susceptibility study (1), broth microdilution MIC; type: cell-based; settings: lowest concentration preventing any visible growth, read at 48 hours, 25° C., RPMI 1640 pH 7.0
In short: (§1)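 Broth microdilution in test medium at pH 7.0 with two-fold compound dilutions (DMSO stocks diluted 50-fold into medium), inoculated with freshly grown yeast cultures. Plates were incubated without agitation at 35° C. for C. albicans or 25° C. for C. humicolus. MIC was taken as the concentration with no visible growth, read at 48 hours.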

[2] = tested on: Candida albicans ATCC 14053; experiment: as above; type: cell-based; settings: lowest concentration preventing any visible growth, read at 48 hours, 35° C., RPMI 1640 pH 7.0
In short: as §1

[3] = tested on: Fusarium oxysporum VKM F-140; experiment: as above; type: cell-based; settings: lowest concentration preventing any visible growth, read at 48 hours, 35° C., RPMI 1640 pH 7.0
In short: (§2)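 Broth microdilution was run at pH 7.0 with compounds diluted from DMSO solutions and mixed 1:1 with conidial inoculum. Spore suspensions were adjusted to OD530 0.09-0.11 for A. niger or 0.15-0.17 for F. oxysporum, then diluted 1:50. Plates were incubated at 35° C without agitation, and MIC was read at 48 hours as absence of visible growth.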

[4] = tested on: Aspergillus niger ATCC 16404; experiment: as above; type: cell-based; settings: lowest concentration preventing any visible growth, read at 48 hours, 35° C., RPMI 1640 pH 7.0
In short: as §2

[5] = tested on: Candida albicans ATCC 10231; experiment: Antifungal susceptibility study (2), MIC50 by OD490 growth; type: cell-based; settings: 50% growth inhibition from regression curve, M19 medium without NaCl, 30° C.
Method: The anti-fungal activity of several of the nystatin derivatives was further investigated. […] The anti-fungal activity of a number of the nystatin derivatives was therefore determined in a method which is designed to be more sensitive.
The test organism used for the further testing of polyene macrolide bioactivity was Candida albicans ATCC 10231, grown in 120 μl of standard M19 medium without NaCl (with an inoculum of 1000 cfu per well) and 30 μl of diluted polyene macrolide samples. The antibiotics were diluted in MeOH in series ensuring a spectrum of concentrations which yielded results ranging from complete growth inhibition to no inhibition of the test organism. The test organism cultures with antibiotic dilutions were incubated in 96-well microtiter plates at 30° C. without shaking, and growth was measured as OD490 after 12, 14 and 16 hours on a SpectraMax Plus microtiter plate reader. OD was plotted against antibiotic concentration, and MIC50 was estimated from the regression curve at 50% growth inhibition.

[6] = tested on: yeasts and filamentous fungi (moulds); experiment: Antifungal susceptibility study (1), overall comparison across the test organisms; type: cell-based; settings: Table 5 MICs
Method: The organisms used for susceptibility testing were: Candida albicans ATCC 14053, Cryptococcus humicolus ATCC 9949, Aspergillus niger ATCC 16404 and Fusarium oxysporum VKM F-140 (=CMI, IMI 90473). Organisms were stored on potato dextrose agar […] 50% glycerol solution at -70° C. For short-term storage, stock cultures were stored on agar […] 4° C. The cultures of yeasts were sub-cultured onto Sabouraud dextrose (SAB) agar and incubated for 24 hours at 35° C. (Candida albicans) or for 48 hours at 25° C. (Cryptococcus humicolus) to obtain a freshly grown pure culture. The cultures of moulds were sub-cultured onto potato dextrose agar and incubated for 7 days at 35° C. […] (Fusarium oxysporum) to ensure maximum sporulation. Sterile 96-well flat-bottomed microtitration plates were used for testing. 100 μl of diluted inocula were dispensed into each microdilution well containing 100 μl of the double dilutions of compounds. Drug-free and yeast/mould-free controls were included. Microdilution trays were incubated at 35° C. (Candida albicans and moulds) or 25° C. (Cryptococcus humicolus) without agitation and observed for the presence or absence of visible growth. […] Minimal inhibitory concentrations (MICs) were read at 48 hours.

erythrocytes = experiment: In vitro toxicity study, haemolysis (Tables 11 and 12); type: cell-based, horse
Method: The toxicity of various nystatin derivatives was tested at 2 and 5 μg/mL and at 25 μM.
Compounds were dissolved in DMSO at 5 mg/mL and 0.1 mL samples with different concentrations were prepared in DMSO. The samples were mixed with 0.9 mL PBS buffer containing 2.5% horse blood (PBS-HB; kept on ice) and incubated at 37° C. for 30 min without agitation.
Cells were pelleted by centrifugation at 5000 rpm for 5 min and haemolysis was evaluated by measuring OD545. 100% haemolysis was defined as the OD545 value obtained from a suspension of 2.5% horse blood in distilled water.

[7] = tested on: mice (C57B1/6xDBA/2)F1 B6D2F1; settings: for LD50 / MTD: single injection into tail vein, probit analysis
Method: (§3) Male mice of hybrids of first generation (C57B1/6xDBA/2)F1 B6D2F1, weight 20-22 g., received from the Central farm. “Kryukovo” of Russian Academies of Medical Science (RAMS) were used. Animals were maintained in a vivarium in plastic cages (with hardwood bedding in environmentally controlled conditions: 24±1° C., 12/12 hours light/dark cycle) on a standard diet of bricketed forages with easy access to drinking water (ad libitum). After a 2-week quarantine period, healthy animals were used in experimental work.
(§4) The solutions were prepared as follows: dry antibiotic substances (5 mg) were mixed with dry sodium deoxycholate (4.1 mg) in a sterile glass vial. 10 mL of phosphate buffer (NaH2PO4—1.59 g; Na2HPO4—0.96 g; H2O—to 100 mL) was added to the mix and the suspension was immediately subjected to vigorous shaking for 10 minutes until homogeneous suspensions were formed.
Preparations of amphotericin B and S44HP were also prepared in the same way.
The antibiotic preparations were singly injected into the mice's tail vein within 1-1.5 hours after the preparation of solutions. […] Each antibiotic was used in a range of doses resulting in 0% to 100% lethality and a minimum of 3 intermediate doses. Animals were randomized into groups, each containing 6 mice.

Candida albicans = experiment: Neutropenic mouse model of disseminated candidosis; type: in vivo
Method: Mice were rendered neutropenic by injection with cyclophosphamide monohydrate (Fluka, BioChemika, Sigma-Aldrich, Switzerland) intraperitoneally 2×100 mg/kg of body weight 1 day before infection.

[8] = tested on: Candida albicans (strain 14053 ATCC); experiment: In vivo antifungal activity, kidney burden in infected mice; settings: colonies per 1 g of kidney tissue, day 5, individual mice
Method: as §3, §4
Animals were infected intravenously with Candida albicans culture at a dose of 1.0 million CFU/mouse (volume 0.1 mL). 30 minutes after infection, the antifungal agents were introduced intravenously into the mice at various doses in a volume of 0.2 mL (at a rate of 0.2 mL/30 second). Each dose was administered daily for four days including the day of infection (0, 1, 2 and 3 days).
As a control, there was a group of untreated mice (infected in the same way with Candida albicans). Also there was a “placebo” group of non-infected animals which were intravenously administered (in the same volume as antifungal agent preparations) 0.2 mL of solvent (phosphatic buffer +5% glucose (1:1)).
On the 5th day of experiment, mice were weighed and euthanized (killed) by a cervical dislocation. Then, in sterile conditions, the Candida albicans burden of each mouse was determined by counting of viable homogenates from the kidneys. The kidneys were removed aseptically and weighed, then pounded in porcelain mortars with sterile corundum. Dilutions of the resulting suspensions were prepared and sowed on Petri dishes with agar Saburo, incubated for 24 hours at a temperature of 35° C. Developed colonies of Candida albicans were then counted and their quantity calculated on the basis of 1 g of kidney tissue.

SMILES | MIC Cryptococcus humicolus ATCC 9949 [1] | MIC Candida albicans ATCC 14053 [2] | MIC Fusarium oxysporum VKM F-140 [3] | MIC Aspergillus niger ATCC 16404 [4] | MIC50 [5] | anti-fungal activity compared with Amphotericin B and S44HP [6] | Haemolysis of erythrocytes, Mean ± S.E.M. (erythrocytes; 25 μM (Table 12)) | Haemolysis of erythrocytes (erythrocytes; 25 μM, individual blood samples (Table 12)) | Haemolysis of erythrocytes, Mean ± SE (erythrocytes; 5 μg/mL (Table 11)) | Haemolysis of erythrocytes (erythrocytes; 5 μg/mL, individual blood samples # 1-3 (Table 11)) | acute toxicity, times lower than amphotericin B [7] | LD50 [7] | MTD [7] | activity compared with amphotericin B (Candida albicans) | Number of Colonies ([8]; 0.08 mg/kg × 4/24 i.v.) | Number of Colonies ([8]; 0.15 mg/kg × 4/24 i.v.) | Number of Colonies ([8]; 0.3 mg/kg × 4/24 i.v.) | Number of Colonies ([8]; 0.6 mg/kg × 4/24 i.v.)
CCOC(=O)CNC(=O)C1C(O)CC2(O)CC(O)C(O)CCC(O)CC(O)CC(O)CC(=O)OC(C)C(C)C(O)C(C)C=CC=CC=CC=CC=CC=CC=CC(OC3OC(C)C(O)C(N)C3O)CC1O2 (centres unmarked) [Compound 9] | 1 µg/mL (≈ 0.991 µM) | 1 µg/mL (≈ 0.991 µM) | 4 µg/mL (≈ 3.96 µM) | 2 µg/mL (≈ 1.98 µM) | 0.13 µg/mL (≈ 0.129 µM) | comparable anti-fungal activity to Amphotericin B and S44HP | 18.4 ± 1.9% | 18.0% and 16.7% and 22.4% and 25% and 16.2% and 12.2% | – | – | – | – | – | – | – | – | – | –
CC1C=CC=CC=CC=CC=CC=CC=CC(OC2OC(C)C(O)C(N)C2O)CC2OC(O)(CC(O)C(O)CCC(O)CC(O)CC(O)CC(=O)OC(C)C(C)C1O)CC(O)C2C(=O)NCCCO (centres unmarked) [Compound 12] | 1 µg/mL (≈ 1.02 µM) | 1 µg/mL (≈ 1.02 µM) | 2 µg/mL (≈ 2.04 µM) | 2 µg/mL (≈ 2.04 µM) | 0.14 µg/mL (≈ 0.143 µM) | comparable anti-fungal activity to Amphotericin B and S44HP | – | – | 4.4 ± 0.3% | 5% and 4.3% and 4.0% | – | – | – | – | – | – | – | –
CC1C=CC=CC=CC=CC=CC=CC=CC(OC2OC(C)C(O)C(N(CCCN)CCCN)C2O)CC2OC(O)(CC(O)C(O)CCC(O)CC(O)CC(O)CC(=O)OC(C)C(C)C1O)CC(O)C2C(=O)O (centres unmarked) [Compound 22] | 1 µg/mL (≈ 0.963 µM) | 1 µg/mL (≈ 0.963 µM) | 1 µg/mL (≈ 0.963 µM) | 1 µg/mL (≈ 0.963 µM) | 0.07 µg/mL (≈ 0.0674 µM) | comparable anti-fungal activity to Amphotericin B and S44HP | – | – | – | – | – | – | – | – | – | – | – | –
CC1C=CC=CC=CC=CC=CC=CC=CC(OC2OC(C)C(O)C(N)C2O)CC2OC(O)(CC(O)CCCC(O)CC(O)CC(O)CC(=O)OC(C)C(C)C1O)CC(O)C2C.NC(CCC(=O)O)C(=O)O (centres unmarked) [Compound 25] | – | – | – | – | – | – | – | – | – | – | ~20 times | 50.8 mg/kg | 42.8 mg/kg | less active than amphotericin B | – | – | – | –
CC1C=CC=CC=CC=CC=CC=CC=CC(OC2OC(C)C(O)C(N)C2O)CC2OC(O)(CC(O)CC(O)CC(O)CC(O)CC(O)CC(=O)OC(C)C(C)C1O)CC(O)C2C.NC(CCC(=O)O)C(=O)O (centres unmarked) [Compound 26] | – | – | – | – | – | – | – | – | – | – | ~20 times | 50.0 mg/kg | 43.1 mg/kg | less active than amphotericin B | – | – | – | –
C[C@@H]1[C@H](O)[C@@H](C)/C=C/C=C/C=C/C=C/C=C/C=C/C=C/[C@H](O[C@@H]2O[C@H](C)[C@@H](O)[C@H](N)[C@@H]2O)C[C@@H]2O[C@](O)(C[C@@H](O)[C@H](O)CC[C@@H](O)C[C@@H](O)C[C@@H](O)CC(=O)O[C@H]1C)C[C@H](O)[C@H]2C(=O)O [Compound S44HP, reference compound] | 1 µg/mL (≈ 1.08 µM) | 1 µg/mL (≈ 1.08 µM) | 4 µg/mL (≈ 4.33 µM) | 1 µg/mL (≈ 1.08 µM) | 0.12 µg/mL (≈ 0.13 µM) | – | – | – | – | – | – | 2.05 mg/kg | 0.64 mg/kg | – | 2.7 × 10^4 and 8.0 × 10^4 and 8.2 × 10^4 | 8.0 × 10^3 and 6.4 × 10^3 and 1.6 × 10^4 | 2.7 × 10^3 and 9.4 × 10^3 and 1.3 × 10^4 | 2.5 × 10^3 and 8.8 × 10^3 and 1.2 × 10^3
